The target of the experiment is Sodium channel protein type 5 subunit alpha (Homo sapiens, UniProt Q14524). In words: Inhibition of human Nav1.5 expressed in HEK293 cells assessed as inhibition of sodium current at holding potential of -125 mV measured for 3 to 5 mins by whole cell voltage clamp method.

IC50 data for two compounds are collected here from BindingDB's records for doi:10.1021/acsmedchemlett.6b00243 (Amgen, 2016).

Sodium channel protein type 5 subunit alpha, sequence (Q14524 whole entry): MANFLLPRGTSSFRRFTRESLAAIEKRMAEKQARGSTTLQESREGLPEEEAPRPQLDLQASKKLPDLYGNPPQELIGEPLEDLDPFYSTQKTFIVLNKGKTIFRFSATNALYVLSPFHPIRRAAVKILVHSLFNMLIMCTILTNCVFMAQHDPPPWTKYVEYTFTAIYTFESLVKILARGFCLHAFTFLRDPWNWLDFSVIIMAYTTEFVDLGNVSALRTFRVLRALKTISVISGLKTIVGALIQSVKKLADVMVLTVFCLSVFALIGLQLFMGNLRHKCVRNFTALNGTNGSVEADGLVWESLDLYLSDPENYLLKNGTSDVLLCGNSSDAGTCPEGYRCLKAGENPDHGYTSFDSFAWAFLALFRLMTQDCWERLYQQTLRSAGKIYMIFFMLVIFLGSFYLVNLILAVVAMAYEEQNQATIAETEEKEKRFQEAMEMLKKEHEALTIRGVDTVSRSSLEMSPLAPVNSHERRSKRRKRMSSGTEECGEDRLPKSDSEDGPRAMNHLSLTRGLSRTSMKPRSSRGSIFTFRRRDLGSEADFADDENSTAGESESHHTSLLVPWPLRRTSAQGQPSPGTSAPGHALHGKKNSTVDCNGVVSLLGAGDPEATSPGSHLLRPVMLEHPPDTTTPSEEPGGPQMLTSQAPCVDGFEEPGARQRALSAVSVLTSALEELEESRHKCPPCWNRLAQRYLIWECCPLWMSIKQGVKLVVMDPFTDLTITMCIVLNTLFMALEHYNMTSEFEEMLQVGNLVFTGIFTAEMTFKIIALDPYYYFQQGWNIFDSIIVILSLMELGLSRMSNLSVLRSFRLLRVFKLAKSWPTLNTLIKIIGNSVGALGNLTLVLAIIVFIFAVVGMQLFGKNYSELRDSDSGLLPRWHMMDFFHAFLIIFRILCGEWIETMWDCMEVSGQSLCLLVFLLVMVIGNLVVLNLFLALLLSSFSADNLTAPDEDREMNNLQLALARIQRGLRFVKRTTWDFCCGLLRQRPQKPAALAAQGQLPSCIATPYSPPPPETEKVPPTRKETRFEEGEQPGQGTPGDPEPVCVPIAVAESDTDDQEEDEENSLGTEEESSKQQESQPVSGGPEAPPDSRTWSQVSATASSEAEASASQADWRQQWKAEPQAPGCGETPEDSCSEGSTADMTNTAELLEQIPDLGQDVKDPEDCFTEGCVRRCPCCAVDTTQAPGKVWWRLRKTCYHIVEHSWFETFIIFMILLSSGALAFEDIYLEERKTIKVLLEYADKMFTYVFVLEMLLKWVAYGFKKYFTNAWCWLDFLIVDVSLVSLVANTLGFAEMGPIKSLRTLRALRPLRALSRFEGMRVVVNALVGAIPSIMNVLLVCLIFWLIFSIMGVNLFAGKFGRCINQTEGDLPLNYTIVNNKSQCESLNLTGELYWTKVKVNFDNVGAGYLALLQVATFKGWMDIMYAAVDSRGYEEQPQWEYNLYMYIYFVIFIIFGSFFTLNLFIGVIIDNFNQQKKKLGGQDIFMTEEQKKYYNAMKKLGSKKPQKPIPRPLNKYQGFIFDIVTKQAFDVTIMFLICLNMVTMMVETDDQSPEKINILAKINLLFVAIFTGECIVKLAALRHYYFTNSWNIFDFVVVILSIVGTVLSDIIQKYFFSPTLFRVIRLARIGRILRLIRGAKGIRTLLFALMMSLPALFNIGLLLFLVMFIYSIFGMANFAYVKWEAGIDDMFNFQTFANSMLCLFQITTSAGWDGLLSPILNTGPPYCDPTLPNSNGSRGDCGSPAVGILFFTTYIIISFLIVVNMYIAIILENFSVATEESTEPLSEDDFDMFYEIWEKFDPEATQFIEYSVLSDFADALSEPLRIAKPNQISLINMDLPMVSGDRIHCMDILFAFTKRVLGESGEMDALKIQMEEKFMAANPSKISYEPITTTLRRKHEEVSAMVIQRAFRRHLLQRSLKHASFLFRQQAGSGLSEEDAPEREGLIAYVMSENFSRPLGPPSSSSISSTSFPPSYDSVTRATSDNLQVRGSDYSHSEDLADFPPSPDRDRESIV

By IC50 is commonly meant the midpoint of a concentration-inhibition curve. In the case of `COc1cc(C(F)(F)F)ccc1-c1n[nH]c(=O)c2cc(S(=O)(=O)Nc3nccs3)ccc12` [US9012443, 293], the IC50 is above 30 µM.
As for `COc1cc(C(F)(F)F)ccc1-c1cnnc2cc(S(=O)(=O)Nc3nccs3)ccc12` [US9012443, 259], the IC50 is above 30 µM.
